Measurements taken from US20030185878A1, “Process for producing phospholipid-containing drug” (priority 2002, published 2003).

Row | SMILES | melting point [°C]
1 | Cn1ncc2c1-c1c(Oc3ccc(OCc4ccccc4)cc3)sc(C(N)=O)c1CC2 [compound 5, 8-(4-Benzyloxyphenoxy)-4,5-dihydro-1-methyl-1H-thieno[3,4-g]indazole-6-carboxamide] | 200 to 201
2 | Cn1ncc2c1-c1c(Oc3ccc(F)cc3)sc(C(N)=O)c1CC2 [compound 15, 4,5-Dihydro-1-methyl-8-(4-fluorophenoxy)-1H-thieno[3,4-g]indazole-6-carboxamide] | 188 to 189
3 | Cn1ncc2c1-c1c(Oc3ccc4c(c3)OCO4)sc(C(N)=O)c1CC2 [Reference Example 4, 4,5-Dihydro-1-methyl-8-(3,4-methylenedioxyphenoxy)-1H-thieno[3,4-g]indazole-6-carboxamide] | 204 to 205
4 | COc1ccc(Oc2sc(C(N)=O)c3c2-c2c(cnn2C)CC3)cc1 [compound 6, 4,5-Dihydro-1-methyl-8-(4-methoxyphenoxy)-1H-thieno[3,4-g]indazole-6-carboxamide] | 203 to 205
5 | Cc1cccc(Oc2sc(C(N)=O)c3c2-c2c(cnn2CC(F)(F)F)CC3)c1C [compound 9, 4,5-Dihydro-8-(2,3-dimethylphenoxy)-1-(2,2,2-trifluoroethyl)-1H-thieno[3,4-g]indazole-6-carboxamide] | 190 to 191
6 | Cn1ncc2c1-c1c(Oc3ccc(OCc4ccncc4)cc3)sc(C(N)=O)c1CC2 [compound 14, 4,5-Dihydro-1-methyl-8-[4-(4-pyridylmethyloxy)phenoxy]-1H-thieno[3,4-g]indazole-6-carboxamide] | 249 to 250
7 | Cn1ncc2c1-c1c(Oc3ccc(OC(F)(F)F)cc3)sc(C(N)=O)c1CC2 [compound 7, 4,5-Dihydro-1-methyl-8-(4-trifluoromethoxyphenoxy)-1H-thieno[3,4-g]indazole-6-carboxamide] | 212 to 213
